Reference: ChEMBL document CHEMBL5260849, “Current advances in Vibrio harveyi quorum sensing as drug discovery targets” (Eur J Med Chem, 2020)
Values after ≈ are worked out from the molar mass of the structure shown.

Tests used:
[1] = Inhibition of quorum-sensing system in Vibrio harveyi BB170 assessed as inhibition of QS-mediated bioluminescence at 0.02 to 200 uM incubated for 18 hrs by Luminescence assay; conditions: dose 0.02-200 µM
[2] = test system: Vibrio harveyi; test: Antimicrobial activity against Vibrio harveyi MM30 assessed as decrease in swimming motility at 200 ug/ml incubated for 15 hrs by agar plate reader analysis; type: functional; set-up: scale not given: the % may be the effect or the level left; conditions: dose 200 µg/ml
[3] = Inhibition of quorum-sensing system in Vibrio harveyi BB152 assessed as inhibition of QS-mediated bioluminescence at 0.02 to 200 uM incubated for 18 hrs by Luminescence assay; conditions: dose 0.02-200 µM
[4] = test system: Vibrio harveyi; test: Antimicrobial activity against Vibrio harveyi BB152 assessed as decrease in swimming motility at 200 ug/ml incubated for 15 hrs by agar plate reader analysis; type: functional; set-up: scale not given: the % may be the effect or the level left; conditions: dose 200 µg/ml
[5] = test system: Vibrio harveyi; test: Inhibition of biofilm formation in Vibrio harveyi BB152 at 200 ug/ml for 24 hrs by crystal violet assay; type: functional
[6] = test system: Vibrio harveyi; test: Inhibition of biofilm formation in Vibrio harveyi MM77 assessed as inhibition of exopolysaccharides production at 200 uM incubated for 24 hrs by Fluorescence assay; type: functional
[7] = Inhibition of quorum-sensing system in Vibrio harveyi MM77 assessed as inhibition of QS-mediated bioluminescence at 0.02 to 200 uM incubated for 18 hrs by Luminescence assay; conditions: dose 0.02-200 µM
[8] = test system: Vibrio harveyi; test: Antimicrobial activity against Vibrio harveyi BB120 assessed as decrease in swimming motility at 200 ug/ml incubated for 15 hrs by agar plate reader analysis; type: functional; set-up: scale not given: the % may be the effect or the level left; conditions: dose 200 µg/ml
[9] = test system: Vibrio harveyi; test: Antibacterial activity against Vibrio harveyi infected […] franciscana assessed as increase in survival rate at 20 uM and measured after 60 hrs by light microscopy; type: functional
[10] = Inhibition of quorum-sensing system in Vibrio harveyi assessed as inhibition of bioluminescence at 20 uM by bioluminescence assay
[11] = test system: Vibrio harveyi; test: Antibacterial activity against Vibrio harveyi MTCC 3438 assessed as bacterial growth inhibition incubated for 24 hrs by broth microdilution assay; type: functional
[12] = test system: Vibrio harveyi; test: Antibiofilm activity against Vibrio harveyi BB170 assessed as inhibition of biofilm formation at 200 uM by Crystal violet biofilm assay; type: functional
[13] = Inhibition of quorum sensing system in Vibrio harveyi MTCC 3438 assessed fold decrease in luxQ expression at 250 ug/ml by qPCR assay; conditions: dose 250.0 µg/ml
[14] = Inhibition of quorum sensing system in Vibrio harveyi MTCC 3438 assessed fold decrease in luxS expression at 250 ug/ml by qPCR assay; conditions: dose 250.0 µg/ml
[15] = Inhibition of quorum sensing system in Vibrio harveyi MTCC 3438 assessed fold decrease in luxR expression at 250 ug/ml by qPCR assay; conditions: dose 250.0 µg/ml
[16] = test system: Vibrio harveyi; test: Antibacterial activity against Vibrio harveyi MTCC 3438 infected Litopenaeus vannamei larvae assessed as increase in survival rate at 250 ug/ml and measured upto 96 hrs; type: functional
[17] = test system: Vibrio harveyi; test: Antibiofilm activity against Vibrio harveyi MTCC 3438 assessed as inhibition of biofilm formation at 250 ug/ml for 16 hrs by crystal violet staining based spectrophotometric assay; type: functional
[18] = test system: Vibrio harveyi; test: Inhibition of biofilm formation in Vibrio harveyi MTCC 3438 assessed as reduction in exopolysaccharides production at 250 ug/ml for 24 hrs by spectrophotometric assay; type: functional
[19] = Inhibition of quorum sensing system in Vibrio harveyi MTCC 3438 assessed fold decrease in luxP expression at 250 ug/ml by qPCR assay; conditions: dose 250.0 µg/ml
[20] = test system: Vibrio harveyi; test: Antibacterial activity against Vibrio harveyi MTCC 3438 assessed as reduction in cell surface hydrophobicity at 250 ug/ml for 10 mins by BATH assay; type: functional; conditions: MTCC 3438, 10 min
[21] = Inhibition of quorum sensing system in Vibrio harveyi MTCC 3438 assessed fold decrease in luxO expression at 250 ug/ml by qPCR assay; conditions: dose 250.0 µg/ml

SMILES: CCCCCCC(C)(C)c1cc(O)c2c(c1)OC(C)(C)[C@@H]1CC=C(CO)C[C@@H]21
- inhibition [1]: 85%
- Activity [2]: 95%
- inhibition [3]: 98%
- Activity [4]: 85%
- inhibition at 200 µg/mL [5]: 80%
- inhibition at 200 µM [6]: 75%
- inhibition [7]: 95%
- Activity [8]: 80%

SMILES: O=S(=O)(c1ccc(Br)s1)n1cccn1
- survival at 20 µM [9]: 85.5%
- inhibition [10]: 100%

SMILES: O=C(O)[C@@H]1[C@H](C(=O)O)[C@@H]2C=C[C@H]1C2
- MIC [11]: 8 µg/mL (≈ 43.9 µM)

SMILES: CC(=O)C(=O)C(F)CO (stereo unspecified)
- inhibition at 200 µM [12]: 90%

SMILES: Cc1cc(C(C)(C)C)c(O)c(C(C)(C)C)c1 [BUTYLATED HYDROXYTOLUENE]
- fold change (FC) [13]: 0.5
- fold change (FC) [14]: 0.9
- fold change (FC) [15]: 1.9
- survival at 250 µg/mL [16]: 75%
- inhibition at 250 µg/mL [17]: 80%
- inhibition at 250 µg/mL [18]: 65%
- fold change (FC) [19]: 0.7
- inhibition at 250 µg/mL [20]: 82%
- fold change (FC) [21]: 0.1
